Measurements from patent US20070191480A1, “Gycol Ether Miticides and Anti-Allergen Treatments” (priority 2004, published 2007).
Where two headings read alike, the source gives them in different places.

How the values were obtained:
dust mites = experiment: Dust mite kill efficacy, submersion method; format: in vivo; settings: for 1% HC Solution: % kill at 30 min / 1% HC Solution: time to 100% kill: 1% HC solution with 1% Stepanol WAC; for 1% HC Solution: % kill at 30 min: None = no kill; for 1% HC with 7% DPnP Solution: % kill at 30 min / 1% HC with 7% DpnP at 9.5 pH: % kill at 30 min / 1% HC with 7% DPnP Solution: time to 100% kill / 1% HC with 7% DpnP at 9.5 pH: time to 100% kill: 1% Stepanol WAC; for 1% HC with 7% DpnP at 9.5 pH: % kill at 30 min / 1% HC with 7% DpnP at 9.5 pH: time to 100% kill: pH 9.5; for 8% Solution: time to 100% kill: 8% glycol ether/ester in water with 1% Stepanol WAC, mites immersed, maximum time period 30 minutes; for >50% kill in 30 min.: 8% or saturated solutions in water, dust mites; for 1% HC Solution: time to 100% kill: solution pH (6.30-7.26); for 1% HC Solution: time to 100% kill / 1% HC with 7% DPnP Solution: time to 100% kill / 1% HC with 7% DpnP at 9.5 pH: time to 100% kill: maximum 30 minutes
Excerpt: To test the efficacy of the cleaning composition containing glycol ether, glycol ether ester, and combinations thereof for their ability to kill dust mites, a submersion method was used. The dust mites were immersed in the following solutions with a 1% or 8% glycol ether, glycol ether ester or a combination thereof. In addition to the glycol ether and or glycol ether ester, the solution also contained about 1% Stepanol® WAC (sodium lauryl sulfate) surfactant and the remainder of the solution was water. The pH of the aqueous solution was maintained between about 5 to 10.
After the dust mites were immersed in the solution they were tested each minute to determine if they were still alive or not. To test if the mites were alive after treatment, they are viewed under a dissecting microscope and poked with a 26-guage needle to induce movement. […] Since sometimes dust mites may appear to-be dead after treatment and then recover a few days later, a treated population and a control sample were placed in a high humidity desiccators and poke tests were conducted over several days following the initial treatment to ensure that the initial reported kill rates were accurate.

Vapor pressure = experiment: Vapor pressure
Description: The preferred vapor pressure of the solvents is less than about 1 mm Hg at 20° C., and preferably the vapor pressure is less than 0.5 mm Hg at 20° C.

[1] = Solubility in water at 20° C.

| SMILES | 8% Solution: time to 100% kill (dust mites) [min] | >50% kill in 30 min. (dust mites) | Vapor Pressure (mm Hg) (Vapor pressure) | Solubility in water at 20° C. [1] [%] | Vapor Pressure (mm Hg) (Vapor pressure; at 20° C.) | other results |
| --- | --- | --- | --- | --- | --- | --- |
| CCCCOCCOCCOC(C)=O [Butyl Carbitol Acetate, diethylene glycol n-butyl ether acetate] | 20 | Yes | 0.04 |  |  | 1% HC Solution: % kill at 30 min (dust mites): 50% kill; 1% HC with 7% DPnP Solution: % kill at 30 min (dust mites): 90% kill; 1% HC with 7% DpnP at 9.5 pH: % kill at 30 min (dust mites): 80% kill |
| CCCCOCCOC(C)=O [Butyl Cellosolve Acetate, ethylene glycol n-butyl ether acetate] | 4 | Yes |  | 1 | 0.29 | 1% HC Solution: time to 100% kill (dust mites): 22 min; 1% HC with 7% DPnP Solution: time to 100% kill (dust mites): 18 min; 1% HC with 7% DpnP at 9.5 pH: time to 100% kill (dust mites): 16 min |
| CCOCCOCCO [Diethylene glycol ethyl ether] |  | No | 0.12 |  |  |  |
| COCCOCCO [Diethylene glycol methyl ether] |  | no |  | 100 | 0.2 |  |
| CCCCOCCOCCO [Diethylene glycol n-butyl ether] |  | No |  | 100 | 0.02 |  |
| COC(C)COC(C)COC(C)=O (stereo not shown) [Dipropylene glycol methyl ether acetate] |  | Yes | 0.05 |  |  |  |
| COC(C)COC(C)CO (stereo not shown) [Dipropylene glycol methyl ether] |  | No | 0.17 |  |  |  |
| CCCOC(C)COC(C)CO (stereo not shown) [Dipropylene glycol n-propyl ether] |  | No |  | 18 | 0.05 |  |
| OCCOc1ccccc1 [Dowanol Eph, ethylene glycol phenyl ether] | 17 |  |  |  |  | 1% HC Solution: % kill at 30 min (dust mites): 95% kill; 1% HC with 7% DPnP Solution: % kill at 30 min (dust mites): 95% kill; 1% HC with 7% DpnP at 9.5 pH: % kill at 30 min (dust mites): 50% kill |
| CC(O)COc1ccccc1 (stereo not shown) [Dowanol PPh, propylene glycol phenol ether] | 7 |  |  |  |  | 1% HC Solution: time to 100% kill (dust mites): 22 min; 1% HC with 7% DPnP Solution: time to 100% kill (dust mites): 30 min; 1% HC with 7% DpnP at 9.5 pH: time to 100% kill (dust mites): 26 min |
| CCCCOCC(C)O (stereo not shown) [Dowanol PnB, propylene glycol n-butyl ether] | 17 | Yes | 0.62 |  |  | 1% HC Solution: % kill at 30 min (dust mites): None; 1% HC with 7% DPnP Solution: time to 100% kill (dust mites): 29 min; 1% HC with 7% DpnP at 9.5 pH: % kill at 30 min (dust mites): 60% kill |
| CCCCOC(C)COC(C)COC(C)CO (stereo not shown) [Dowanol TPnB, Tripropylene glycol n-butyl ether] | 20 | Yes |  |  | <0.01 | 1% HC Solution: % kill at 30 min (dust mites): None; 1% HC with 7% DPnP Solution: % kill at 30 min (dust mites): 90% kill; 1% HC with 7% DpnP at 9.5 pH: % kill at 30 min (dust mites): No kill |
| CCCCOCCO [Ethylene glycol n-butyl ether] |  | No |  |  | 0.6 |  |
| CCCOCCO [Ethylene glycol n-propyl ether] |  | No | 1.3 |  |  |  |
| CCCCCCOCCOCCO [Hexyl Carbitol, diethylene glycol monohexyl ether] | 25 |  |  |  |  | 1% HC Solution: % kill at 30 min (dust mites): None; 1% HC with 7% DPnP Solution: time to 100% kill (dust mites): 26 min; 1% HC with 7% DpnP at 9.5 pH: % kill at 30 min (dust mites): No kill |
| CCCCCCOCCO [Hexyl Cellosolve, ethylene glycol monohexyl ether] | 11 | Yes | <1.0 |  |  | 1% HC Solution: time to 100% kill (dust mites): 15 min; 1% HC with 7% DPnP Solution: time to 100% kill (dust mites): 14 min; 1% HC with 7% DpnP at 9.5 pH: time to 100% kill (dust mites): 26 min |
| COCC(C)OC(C)=O (stereo not shown) [Propylene glycol methyl ether acetate] |  | No | 3.8 |  |  |  |
| COCC(C)O (stereo not shown) [Propylene glycol methyl ether] |  | No |  | 100 | 8.1 |  |
| CCCOCC(C)O (stereo not shown) [Propylene glycol n-propyl ether] |  | No |  | 100 | 1.8 |  |
